From patent US20260042774A1, “CAMPTOTHECIN-7-ETHYLAMINE DERIVATIVE, PREPARATION METHOD THEREFOR, AND USE THEREOF” (HANGZHOU ADCORIS BIOPHARMA CO., LTD, priority 2022, published 2026)
Like-named read-outs stand apart in the source and are kept apart here.

How the values were obtained:
Type in all cases: cell-based
MDA-MB-231 = assay: Tumor cell growth inhibitory activity, MDA-MB-231; conditions: Homo sapiens
NCI-H1975 = assay: Tumor cell growth inhibitory activity, NCI-H1975
[1] = tested on: human gastric cancer cells NCI-N87; assay: Tumor cell growth inhibitory activity (CCK-8), NCI-N87
Experimental: (§1) Human esophageal cancer cells OE33 (human breast adenocarcinoma cells SK-BR-3, or human gastric cancer cells NCI-N87) was cultured in RPMI1640 (Cellmax) supplemented with 10% fetal bovine serum (Cellmax). Cells in the exponential growth phase were diluted to a concentration of 1×10^5 cells/mL by culture medium and added to 96-well cell culture plates at 100 μL per well, then returned back and incubated overnight in a 37° C. incubator with 5% CO2. On the following day, the compounds were diluted to concentrations of 10000 nM, 2000 nM, 400 nM, 80 nM, 16 nM, 3.2 nM, 0.64 nM, and 0.13 nM by culture medium and the diluted compounds were added to the 96-well cell culture plates at 2 μL per well, with three replicate wells for each concentration. Negative control and blank control groups without addition of compounds were added with 2 μL of the dilution liquid per well. After the addition of the compounds, the plates were returned back to the 37° C. incubator with 5% CO2 to continue the incubation for 72 h. After the incubation, the cell culture plates were removed, and the culture medium was aspirated using a pipette. Then, 100 μL of culture medium containing 10% CCK-8 was added to each well, and the plates were incubated at 37° C. for 3 h. After the incubation, the plates were removed, kept in the dark, and placed in an ELISA plate. Absorbance was measured at 630 nm as the reference wavelength and 450 nm as the test wavelength. The IC50 values (Table 2) were calculated using the four-parameter logistic regression method in GraphPad.

[2] = tested on: Human esophageal cancer cells OE33; assay: Tumor cell growth inhibitory activity (CCK-8), OE33
Experimental: as §1

[3] = tested on: human breast adenocarcinoma cells SK-BR-3; assay: Tumor cell growth inhibitory activity (CCK-8), SK-BR-3
Experimental: as §1

[4] = MDA-MB-231 cells, read-out: IC50 (nM) for inhibiting the growth of tumor cells, MDA-MB-231
[5] = Homo sapiens, NCI-H1975 cells, read-out: IC50 (nM) for inhibiting the growth of tumor cells, NCI-H1975
[6] = Homo sapiens, NCI-N87 cells, 72 h incubation, CCK-8, read-out: IC50 (nM) for inhibiting the growth of tumor cells, NCI-N87
[7] = Homo sapiens, OE33 cells, 72 h incubation, CCK-8, read-out: IC50 (nM) for inhibiting the growth of tumor cells, OE33
[8] = Homo sapiens, SK-BR-3 cells, 72 h incubation, CCK-8, read-out: IC50 (nM) for inhibiting the growth of tumor cells, SK-BR-3
[9] = Homo sapiens, NCI-H1975, read-out: IC50 (nM) for inhibiting the growth of tumor cells, NCI-H1975, NCI-H1975 cells
[10] = Homo sapiens, NCI-N87, 72 h, read-out: IC50 (nM) for inhibiting the growth of tumor cells, NCI-N87, NCI-N87 cells, 72 h incubation, CCK-8
[11] = Homo sapiens, OE33, 72 h, read-out: IC50 (nM) for inhibiting the growth of tumor cells, OE33, OE33 cells, 72 h incubation, CCK-8
[12] = Homo sapiens, SK-BR-3, 72 h, read-out: IC50 (nM) for inhibiting the growth of tumor cells, SK-BR-3, SK-BR-3 cells, 72 h incubation, CCK-8
[13] = MDA-MB-231, read-out: IC50 (nM) for inhibiting the growth of tumor cells, MDA-MB-231, MDA-MB-231 cells

CC[C@@]1(O)C(=O)OCc2c1cc1n(c2=O)Cc2c-1nc1cc(F)c(F)cc1c2CCN[C@@H](C)COC [Compound 11, 7-(2-((S)-2-Methoxyisopropyl)amino)ethyl-10,11-difluorocamptothecin]
IC50 (MDA-MB-231; [4]): 157 nM | IC50 (NCI-H1975; [5]): 12.6 nM | IC50 [1, 6]: 1.67 nM | IC50 [2, 7]: 7.26 nM | IC50 [3, 8]: 19.2 nM

CC[C@@]1(O)C(=O)OCc2c1cc1n(c2=O)Cc2c-1nc1cc(F)c(F)cc1c2CCNCCN=[N+]=[N-] [Compound 15, 7-(2-(2-Azidoethyl)amino)ethyl-10,11-difluorocamptothecin]
IC50 (NCI-H1975; [5]): 115 nM | IC50 [1, 6]: 1.02 nM | IC50 [2, 7]: 32.3 nM | IC50 [3, 8]: 7.5 nM

CC[C@@]1(O)C(=O)OCc2c1cc1n(c2=O)Cc2c-1nc1cc(F)c(C)cc1c2CCNC1CCC(OC)CC1 (stereo partly drawn) [Compound 7, 7-(2-(4-Methoxycyclohexyl)amino)ethyl-10-methyl-11-fluorocamptothecin]
IC50 (MDA-MB-231; [4]): 147 nM | IC50 (NCI-H1975; [5]): 92.2 nM | IC50 [1, 6]: 2.02 nM | IC50 [2, 7]: 6.46 nM | IC50 [3, 8]: 22.2 nM

CC[C@@]1(O)C(=O)OCc2c1cc1n(c2=O)Cc2c-1nc1cc3c(cc1c2CCN[C@@H](C)CO)OCO3 [Compound 28, 7-(2-((S)-Hydroxyisopropyl)amino)ethyl-10,11-methylenedioxycamptothecin]
IC50 (NCI-H1975; [9]): 119 nM | IC50 [1, 10]: 61.5 nM | IC50 [2, 11]: 49.6 nM | IC50 [3, 12]: 77.2 nM

CC[C@@]1(O)C(=O)OCc2c1cc1n(c2=O)Cc2c-1nc1cc3c(cc1c2CCNC1CCC(OC)CC1)OCO3 (stereo partly drawn) [Compound 27, 7-(2-(4-Methoxycyclohexyl)amino)ethyl-10,11-methylenedioxycamptothecin]
IC50 (MDA-MB-231; [13]): 155 nM | IC50 (NCI-H1975; [9]): 30.2 nM | IC50 [1, 10]: 2.91 nM | IC50 [2, 11]: 7.9 nM | IC50 [3, 12]: 26.1 nM

CC[C@@]1(O)C(=O)OCc2c1cc1n(c2=O)Cc2c-1nc1cc(F)c(C)cc1c2CCNC(C)=O [Compound 1, 7-(2-Acetylamino)ethyl-10-methyl-11-fluorocamptothecin]
IC50 (MDA-MB-231; [4]): 350 nM | IC50 (NCI-H1975; [5]): 361 nM | IC50 [1, 6]: 3.78 nM | IC50 [2, 7]: 21.3 nM | IC50 [3, 8]: 19.5 nM

CC[C@@]1(O)C(=O)OCc2c1cc1n(c2=O)Cc2c-1nc1cc3c(cc1c2CCNC1CCC(O)CC1)OCO3 (stereo partly drawn) [Compound 26, 7-(2-(4-Hydroxycyclohexyl)amino)ethyl-10,11-methylenedioxycamptothecin]
IC50 [1, 10]: 150 nM | IC50 [2, 11]: 129 nM | IC50 [3, 12]: 218 nM

CC[C@@]1(O)C(=O)OCc2c1cc1n(c2=O)Cc2c-1nc1cc3c(cc1c2CCNS(C)(=O)=O)OCO3 [Compound 38, 7-(2-Methanesulfonamido)ethyl-10,11-methylenedioxycamptothecin]
IC50 (NCI-H1975; [9]): 282 nM | IC50 [1, 10]: 48 nM | IC50 [2, 11]: 199 nM | IC50 [3, 12]: 332 nM

CC[C@@]1(O)C(=O)OCc2c1cc1n(c2=O)Cc2c-1nc1cc(F)c(F)cc1c2CCNC1CCC(OC)CC1 (stereo partly drawn) [Compound 14, 7-(2-(4-Methoxycyclohexyl)amino)ethyl-10,11-difluorocamptothecin]
IC50 (MDA-MB-231; [4]): 460 nM | IC50 (NCI-H1975; [5]): 383 nM | IC50 [1, 6]: 5.3 nM | IC50 [2, 7]: 26.1 nM | IC50 [3, 8]: 36.1 nM

CC[C@@]1(O)C(=O)OCc2c1cc1n(c2=O)Cc2c-1nc1cc(F)c(F)cc1c2CCNC1CCC(O)CC1 (stereo partly drawn) [Compound 12, 7-(2-(4-Hydroxycyclohexyl)amino)ethyl-10,11-difluorocamptothecin]
IC50 (NCI-H1975; [5]): 85.6 nM | IC50 [1, 6]: 5.47 nM | IC50 [2, 7]: 43 nM | IC50 [3, 8]: 41.7 nM

CC[C@@]1(O)C(=O)OCc2c1cc1n(c2=O)Cc2c-1nc1cc3c(cc1c2CCN[C@@H](C)CCO)OCO3 [Compound 18, 7-(2-((S)-4-Hydroxybutyl-2-yl)amino)ethyl-10,11-methylenedioxycamptothecin]
IC50 (MDA-MB-231; [13]): 446 nM | IC50 (NCI-H1975; read-out: IC50 (nM) for inhibiting the growth of tumor cells, NCI-H1975, NCI-H1975 cells): 222 nM | IC50 ([1]; read-out: IC50 (nM) for inhibiting the growth of tumor cells, NCI-N87, NCI-N87 cells, 72 h incubation, CCK-8): 3.63 nM | IC50 ([2]; read-out: IC50 (nM) for inhibiting the growth of tumor cells, OE33, OE33 cells, 72 h incubation, CCK-8): 20.4 nM | IC50 ([3]; read-out: IC50 (nM) for inhibiting the growth of tumor cells, SK-BR-3, SK-BR-3 cells, 72 h incubation, CCK-8): 17.1 nM

CC[C@@]1(O)C(=O)OCc2c1cc1n(c2=O)Cc2c-1nc1cc3c(cc1c2CCN[C@@H]1CCOC1)OCO3 [Compound 34, 7-(2-(N-(R)-Tetrahydrofuran-3-ylamino))ethyl-10,11-methylenedioxycamptothecin]
IC50 (MDA-MB-231; [13]): 41.8 nM | IC50 (NCI-H1975; [9]): 14.4 nM | IC50 [1, 10]: 54.2 nM | IC50 [2, 11]: 2.94 nM | IC50 [3, 12]: 0.45 nM

CC[C@@]1(O)C(=O)OCc2c1cc1n(c2=O)Cc2c-1nc1cc3c(cc1c2CCNC1CCC(OC)CC1)OCCO3 (stereo partly drawn) [Compound 44, 7-(2-(4-Methoxycyclohexyl)amino)ethyl-10,11-ethylenedioxycamptothecin]
IC50 (MDA-MB-231; [4]): 88.5 nM | IC50 (NCI-H1975; [5]): 27.1 nM | IC50 [1, 6]: 3.54 nM | IC50 [2, 7]: 13.8 nM | IC50 [3, 8]: 33.6 nM

CC[C@@]1(O)C(=O)OCc2c1cc1n(c2=O)Cc2c-1nc1cc3c(cc1c2CCNC1CCOCC1)OCO3 [Compound 25, 7-(2-(Tetrahydropyran-4-yl)amino)ethyl-10,11-methylenedioxycamptothecin]
IC50 (MDA-MB-231; [13]): 21.3 nM | IC50 (NCI-H1975; [9]): 15.8 nM | IC50 [1, 10]: 0.46 nM | IC50 [2, 11]: 4.89 nM | IC50 [3, 12]: 4.96 nM

CC[C@@]1(O)C(=O)OCc2c1cc1n(c2=O)Cc2c-1nc1cc(F)c(C)cc1c2CCNC1CCC(O)CC1 (stereo partly drawn) [Compound 6, 7-(2-(4-Hydroxycyclohexyl)amino)ethyl-10-methyl-11-fluorocamptothecin]
IC50 (NCI-H1975; [5]): 298 nM | IC50 [1, 6]: 3.85 nM | IC50 [2, 7]: 24.4 nM | IC50 [3, 8]: 28.7 nM

CC[C@@]1(O)C(=O)OCc2c1cc1n(c2=O)Cc2c-1nc1cc3c(cc1c2CCNc1ncn[nH]1)OCO3 [Compound 41, 7-(2-(1,2,4-Triazol-5-ylamino))ethyl-10,11-methylenedioxycamptothecin]
IC50 (NCI-H1975; [9]): 136 nM | IC50 [1, 10]: 33.9 nM | IC50 [2, 11]: 24.2 nM | IC50 [3, 12]: 89.9 nM

CC[C@@]1(O)C(=O)OCc2c1cc1n(c2=O)Cc2c-1nc1cc3c(cc1c2CCNC(=O)CN=[N+]=[N-])OCO3 [Compound 37, 7-(2-Azidoacetylamino)ethyl-10,11-methylenedioxycamptothecin]
IC50 (NCI-H1975; [9]): 229 nM | IC50 [1, 10]: 5.57 nM | IC50 [2, 11]: 25.2 nM | IC50 [3, 12]: 41.3 nM

CC[C@@]1(O)C(=O)OCc2c1cc1n(c2=O)Cc2c-1nc1cc(F)c(C)cc1c2CCN1CCNCC1 [Compound 5, 7-(2-(piperazin-4-yl))ethyl-10-methyl-11-fluorocamptothecin]
IC50 (NCI-H1975; [5]): 77.3 nM | IC50 [1, 6]: 5.66 nM | IC50 [2, 7]: 44 nM | IC50 [3, 8]: 60.4 nM

CC[C@@]1(O)C(=O)OCc2c1cc1n(c2=O)Cc2c-1nc1cc(F)c(C)cc1c2CCNC(=O)C(F)F [Compound 2, 7-(2-Difluoroacetylamino)ethyl-10-methyl-11-fluorocamptothecin]
IC50 (NCI-H1975; [5]): 101 nM | IC50 [1, 6]: 1.9 nM | IC50 [2, 7]: 9.02 nM | IC50 [3, 8]: 16.6 nM

CC[C@@]1(O)C(=O)OCc2c1cc1n(c2=O)Cc2c-1nc1cc(F)c(F)cc1c2CCNCCO [Compound 10, 7-(2-Hydroxyethylamino)ethyl-10,11-difluorocamptothecin]
IC50 [1, 6]: 8.17 nM | IC50 [2, 7]: 58.3 nM | IC50 [3, 8]: 76.5 nM

CC[C@@]1(O)C(=O)OCc2c1cc1n(c2=O)Cc2c-1nc1cc3c(cc1c2CCN(CCOC)C(=O)CO)OCO3 [Compound 32, 7-(2-(N-Hydroxyacetyl(2-methoxyethyl))amino)ethyl-10,11-methylenedioxycamptothecin]
IC50 [1, 6]: 2.09 nM | IC50 [2, 7]: 11.6 nM | IC50 [3, 8]: 6.48 nM

CC[C@@]1(O)C(=O)OCc2c1cc1n(c2=O)Cc2c-1nc1cc3c(cc1c2CCN(CC(F)F)C(=O)CO)OCO3 [Compound 33, 7-(2-(N-Hydroxyacetyl(2-difluoroethyl))amino)ethyl-10,11-methylenedioxycamptothecin]
IC50 [1, 10]: 2.63 nM | IC50 [2, 11]: 11.9 nM | IC50 [3, 12]: 8.93 nM
